Measured values published in US20230027066A1 (Urovant Sciences GmbH, priority 2019, published 2023).

Tested on: men and women with overactive bladder
Assay: Phase 3 study of vibegron 75 mg vs placebo and tolterodine ER 4 mg, 12 weeks, efficacy (voiding and urine volume diary)
Type: in vivo, human
Details: for Patients with at Least 75% Reduction in Total Incontinence, Adjusted (%) / Patients with at Least 75% Reduction in Total Incontinence, Adjusted n / Patients with at Least 75% Reduction in Total Incontinence, Unadjusted (%) / Patients with at Least 75% Reduction in Total Incontinence, Unadjusted n / Total Incontinence 75% responders, Active - Placebo CMH Difference: FAS-I
Procedure: Enrollment of patients included individuals with OAB Wet (those with UUI, the involuntary loss of urine accompanied by urgency) and OAB Dry (those without UUI). A total of 1,518 patients were randomized across 215 study sites into one of three groups for a 12-week treatment period.
The study consisted of a Screening Period (1 to 5 weeks), a single-blind Run-in Period (2 weeks), a randomized double-blind Treatment Period (12 weeks), and a Follow-up Period (4 weeks).
Tolterodine ER 4 mg was the active control. […] Between the Baseline and Week 12 Visits, patients had study assessments at Week 4 and Week 8.
The Patient Voiding Diary was used by participants (via the eDiary or paper Diary) to record the frequency of daily OAB symptoms including all micturitions, urgency, incontinence, and main reason for incontinence by selecting the respective box for each symptom occurring during the course of a given day and night.
Urine volume data were collected separately by patients using the Urine Volume component of the eDiary, or the paper Urine Volume Chart. The Urine Volume Chart is a tool used in clinical practice and clinical investigation to assess voiding functions over a 24-hour period and is regarded as a useful instrument in the investigation of patients with voiding symptoms. Urine volume may be collected during any one (1) of the 7 Diary Days prior to the visit, and it should be recorded for ˜24 hours starting from the time the patient gets up for the day and continues until the time the patient gets up for the day on the next day.
For the purpose of this study, the number of micturitions was defined as the number of times a patient has voided in the toilet as indicated on the Patient Voiding Diary. Average daily micturitions were calculated using the daily entries in the Patient Voiding Diary, which was completed over the 7 days prior to each study visit. Average daily number of micturitions were calculated as the total number of micturitions that occurred on a Complete Diary Day divided by the number of Complete Diary Days in the Patient Voiding Diary. A complete diary day required confirmation by the patient in the Patient Voiding Diary that all voids and leakages had been recorded for the diary day. Baseline was defined as the average number of micturitions occurring during the last evaluable diary prior to the Baseline Visit.
The number of UUI episodes was defined as the number of times a patient had checked “urge” as the reason for accidental urine leakage. Average daily UUI episodes at each study visit were calculated in the same manner as described above for the micturition endpoint. The UUI endpoint were analyzed using only OAB Wet patients.
For the analysis of the co-primary endpoints (change from baseline in average number of daily micturitions at Week 12 and change from baseline in average number of daily urge urinary incontinence episodes at Week 12, and placebo adjustment of each), a mixed model for repeated measure (MMRM) with restricted maximum likelihood estimation was used. This model corrects for dropout and accounts for the fact that measurements taken on the same patient over time tend to be correlated by using all available information on patients within the same covariate set to derive an estimate of the treatment effect for a dropout-free population. The analysis model for each efficacy endpoint includes terms for treatment, visit, OAB Type (Wet vs Dry), Sex (Female vs Male), Region (US vs Rest of World), baseline score, and interaction of visit by treatment.
Primary inferences were drawn from treatment differences for the changes from baseline derived from the MMRM models at Week 12. As part of secondary objectives, the treatment differences for each post baseline visit were also derived using the same MMRM model. […]

[1] = Week 12, events of Events/Censored
[2] = Week 12, subpopulation Age ≥65 years
[3] = vibegron 75 mg or tolterodine ER 4 mg
[4] = vibegron 75 mg or tolterodine ER 4 mg once daily
[5] = vibegron 75 mg or tolterodine ER 4 mg once daily, OAB Wet
[6] = vibegron 75 mg or tolterodine ER 4 mg, OAB Wet

Cc1ccc(O)c([C@H](CCN(C(C)C)C(C)C)c2ccccc2)c1 [Tolterodine ER, tolterodine, reference compound]
Micturitions, Week 12 LS Mean Change from Baseline (Placebo-Adjusted) (Week 12, co-primary endpoint): −0.3
UUI Episodes, Week 12 LS Mean Change from Baseline (Placebo-Adjusted) (Week 12, co-primary endpoint): −0.4
First 50% Reduction in Urgency Episodes, Events [1]: 164/253
First 100% Reduction in UUI Episodes, Events [1]: 74/245
Total Incontinence Episodes, Week 12 LS Mean Change from Baseline (Placebo-Adjusted) (Week 12, secondary endpoint): −0.5
Urgency Episodes, Week 12 LS Mean Change from Baseline (Placebo-Adjusted) (Week 12, secondary endpoint): −0.4
Micturitions, change at Week 12, mean (SD) [2]: −1.48 (2.15)
UUI Episodes, change at Week 12, mean (SD) [2]: −1.80 (2.41)
Daily Urgency, change at Week 12 (Week 12, subpopulation Age ≥65 years, posthoc analysis): −2.1
Micturitions: Week 12 CFB Mean (descriptive statistics) (Week 12, ≥65 yrs): −1.48
Patients with at Least 75% Reduction in Total Incontinence, Adjusted (%) (baseline to Week 2): 16.5%
Patients with at Least 75% Reduction in Total Incontinence, Adjusted n (baseline to Week 2): 53
Patients with at Least 75% Reduction in Total Incontinence, Unadjusted (%) (baseline to Week 2): 18.2%
Patients with at Least 75% Reduction in Total Incontinence, Unadjusted n (baseline to Week 2): 58
Total Incontinence 75% responders, Active - Placebo CMH Difference (baseline to Week 2): 3.6
Patients with at Least 75% Reduction in Total Incontinence, Adjusted (%) (baseline to Week 4): 23.5%
Patients with at Least 75% Reduction in Total Incontinence, Adjusted n (baseline to Week 4): 75
Patients with at Least 75% Reduction in Total Incontinence, Unadjusted (%) (baseline to Week 4): 28.2%
Patients with at Least 75% Reduction in Total Incontinence, Unadjusted n (baseline to Week 4): 90
Total Incontinence 75% responders, Active - Placebo CMH Difference (baseline to Week 4): 3.7
Patients with at Least 75% Reduction in Total Incontinence, Adjusted (%) (baseline to Week 8): 32.5%
Patients with at Least 75% Reduction in Total Incontinence, Adjusted n (baseline to Week 8): 104
Patients with at Least 75% Reduction in Total Incontinence, Unadjusted (%) (baseline to Week 8): 36.4%
Patients with at Least 75% Reduction in Total Incontinence, Unadjusted n (baseline to Week 8): 116
Total Incontinence 75% responders, Active - Placebo CMH Difference (baseline to Week 8): 5.1
Patients with at Least 75% Reduction in Total Incontinence, Adjusted (%) (baseline to Week 12): 39.9%
Patients with at Least 75% Reduction in Total Incontinence, Adjusted n (baseline to Week 12): 127
Patients with at Least 75% Reduction in Total Incontinence, Unadjusted (%) (baseline to Week 12): 45.1%
Patients with at Least 75% Reduction in Total Incontinence, Unadjusted n (baseline to Week 12): 144
Total Incontinence 75% responders, Active - Placebo CMH Difference (baseline to Week 12): 8.4
UUI, Week 12 LS mean change from baseline (placebo adjusted) (95% CI) (subgroup Age <65 years, vibegron 75 mg or tolterodine ER 4 mg): −0.2 (−0.6 to 0.2)
UUI, Week 12 LS mean change from baseline (placebo adjusted) (95% CI) (subgroup Age ≥65 years, vibegron 75 mg or tolterodine ER 4 mg): −0.6 (−1.1 to −0.1)
UUI, Week 12 LS mean change from baseline (placebo adjusted) (95% CI) (subgroup Age ≥75 years (posthoc analysis), vibegron 75 mg or tolterodine ER 4 mg): −1.6 (−2.5 to −0.7)
UUI, Week 12 LS mean change from baseline (placebo adjusted) (95% CI) (subgroup Females, vibegron 75 mg or tolterodine ER 4 mg): −0.4 (−0.7 to −0.1)
UUI, Week 12 LS mean change from baseline (placebo adjusted) (95% CI) (subgroup Males, vibegron 75 mg or tolterodine ER 4 mg): −0.5 (−1.4 to 0.4)
UUI, Week 12 LS mean change from baseline (placebo adjusted) (95% CI) (subgroup Non-White, vibegron 75 mg or tolterodine ER 4 mg): 0.1 (−0.6 to 0.7)
UUI, Week 12 LS mean change from baseline (placebo adjusted) (95% CI) (subgroup Region: Non-US, vibegron 75 mg or tolterodine ER 4 mg): −0.6 (−1.5 to 0.2)
UUI, Week 12 LS mean change from baseline (placebo adjusted) (95% CI) (subgroup Region: US, vibegron 75 mg or tolterodine ER 4 mg): −0.3 (−0.7 to 0.0)
UUI, Week 12 LS mean change from baseline (placebo adjusted) (95% CI) (subgroup White, vibegron 75 mg or tolterodine ER 4 mg): −0.5 (−0.8 to −0.2)
average volume voided, placebo-adjusted mean change from baseline, week 12 [3]: 13.3 mL
placebo-adjusted mean total daily incontinence episodes, week 12 [3]: −0.5 episodes
proportion of patients (UUI responders) with 75% or more reduction in daily UUI episodes, week 12 [3]: 42.2%
Micturitions, active-placebo LS mean difference, Week 2 [4]: −0.3
Micturitions, active-placebo LS mean difference, Week 4 [4]: −0.4
Micturitions, active-placebo LS mean difference, Week 8 [4]: −0.4
Micturitions, active-placebo LS mean difference, Week 12 [4]: −0.3
Micturitions, average daily number, Week 2 mean [4]: 10.40
Micturitions, average daily number, Week 4 mean [4]: 10.10
Micturitions, average daily number, Week 8 mean [4]: 9.80
Micturitions, average daily number, Week 12 mean [4]: 9.58
Micturitions, change from baseline LS mean, Week 2 [4]: −0.6
Micturitions, change from baseline LS mean, Week 4 [4]: −0.9
Micturitions, change from baseline LS mean, Week 8 [4]: −1.2
Micturitions, change from baseline LS mean, Week 12 [4]: −1.6
UUI episodes, active-placebo LS mean difference, Week 2 [5]: −0.4
UUI episodes, active-placebo LS mean difference, Week 4 [5]: −0.4
UUI episodes, active-placebo LS mean difference, Week 8 [5]: −0.4
UUI episodes, average daily number, Week 2 mean [5]: 2.24
UUI episodes, average daily number, Week 4 mean [5]: 2.06
UUI episodes, average daily number, Week 8 mean [5]: 1.74
UUI episodes, average daily number, Week 12 mean [5]: 1.55
UUI episodes, change from baseline LS mean, Week 2 [5]: −1.2
UUI episodes, change from baseline LS mean, Week 4 [5]: −1.4
UUI episodes, change from baseline LS mean, Week 8 [5]: −1.6
UUI episodes, change from baseline LS mean, Week 12 [5]: −1.8
Time to first 75% reduction in UUI episodes, hazard ratio compared to placebo (proportional hazards) (vibegron 75 mg or tolterodine ER 4 mg, Cox model with sex as covariate): 1.276
Estimated incidence of subjects with 75% decrease from baseline in UUI episodes, Week 2 [6]: 18.8
Estimated incidence of subjects with 75% decrease from baseline in UUI episodes, Week 4 [6]: 20.7
Estimated incidence of subjects with 75% decrease from baseline in UUI episodes, Week 8 [6]: 34.3
Estimated incidence of subjects with 75% decrease from baseline in UUI episodes, Week 12 [6]: 45.7
First 75% reduction in UUI episodes, Events/Censored, Week 2 [6]: 60/259
First 75% reduction in UUI episodes, Events/Censored, Week 4 [6]: 66/253
First 75% reduction in UUI episodes, Events/Censored, Week 8 [6]: 107/212
First 75% reduction in UUI episodes, Events/Censored, Week 12 [6]: 140/179
Overall time to first 75% decrease in UUI episodes, 25th percentile [6]: 4.1 weeks
Overall time to first 75% decrease in UUI episodes, 75th percentile [6]: 14.2 weeks
Overall time to first 75% decrease in UUI episodes, median (95% CI) [6]: 12.1 (8.6 to 12.3) weeks
Time to first 75% decrease in UUI episodes, Events/Censored (overall) [6]: 166/153
